Measured values: publication PMC5853558, “De novo identification of lipid II binding lipopeptides with antibacterial activity against vancomycin-resistant bacteria” (Chemical Science, 2017)
Values after ≈ are worked out from the molar mass of the structure shown. *1 amine or outer side, *2 acyl side, *3 side chain or, on linkers, in order; H or OH if unused. Where a SMILES comes first, the peptide text is derived from it. Bridges are numbered along the chain shown (N, C = ends). [ ]: non-standard residue; d: D form. The star is where a group is joined. TBMB = c1c(C[*:1])cc(C[*:3])cc1C[*:2]; NHDecyl = CCCCCCCCCCN*

Tests used:
M. luteus (NCTC2665) = assay: microbe, parasite or virus in culture; format: cell-based, Micrococcus luteus
Procedure, shortened: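 TSB microdilution MIC. Top final peptide 512 µg/ml, lipopeptides 64 µg/ml, DMSO 2%; cells grown to OD600 0.5, suspension at 1 x 10^6 CFU/ml added 1:1; shaken 250 rpm at strain's optimal temperature; DMSO-only control per strain.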

E. faecium (VRE0321) = assay: microbe, parasite or virus in culture; format: cell-based, Enterococcus faecium; settings: Table 2; vancomycin-resistant isolate from hospitalized patients; broth microdilution in TSB, 16 h; highest tested 64 µg/ml
Experimental: (§1) Section 4 Biological and biochemical experiments
(§2) 4.1 Minimum inhibitory concentration assay
(§3) MIC values were determined by using the broth microdilution method. Peptides were dissolved first in DMSO and diluted with broth so that the final peptide concentration was 1024 µg/ml and the DMSO concentration was 4%. Peptide serial dilutions were made in TSB in a polypropylene 96-wells plate using 50 µl volumes. An overnight culture of the organism of interest was diluted to and OD600 of 0.01 and grown until they reach 0.5. The culture was then diluted to 1 x 10^6 CFU/ml and 50 µl of this suspension was added to each well. The highest concentrations were then 512 µg/ml peptide and 2% DMSO. The plates were incubated at the preferred growth temperature of the organism that was used and 250 rpm. […] When […]
(§4) determining the MICs of the lipidated peptides, the lipopeptides were first dissolved in DMSO and diluted with TSB so that the peptide concentration was 128 µg/ml and the DMSO concentration was 4%. After inoculation the highest peptide concentration evaluated was 64 µg/ml and the DMSO concentration was 2%. A DMSO control was tested for each strain to ensure the DMSO did not affect the growth of the particular strain. […]

E. faecium (VRE155) = assay: microbe, parasite or virus in culture; format: cell-based, Enterococcus faecium; settings: Table 2; vancomycin-resistant isolate from hospitalized patients; broth microdilution in TSB, 16 h; highest tested 64 µg/ml
Experimental: as §1, §2, §3, §4

E. faecium (VRE7391) = assay: microbe, parasite or virus in culture; format: cell-based, Enterococcus faecium
Experimental: as §1, §2, §3, §4

E. faecium (E980) = assay: microbe, parasite or virus in culture; format: cell-based, Enterococcus faecium
Experimental: as §1, §2, §3, §4

E. faecium (VRE2297) = assay: microbe, parasite or virus in culture; format: cell-based, Enterococcus faecium
Experimental: as §1, §2, §3, §4

S. epidermidis (1587) = assay: microbe, parasite or virus in culture; format: cell-based
Experimental: as §1, §2, §3, §4

B. subtilis (168) = assay: microbe, parasite or virus in culture; format: cell-based
Experimental: as §1, §2, §3, §4

S. pyogenes (5448) = assay: microbe, parasite or virus in culture; format: cell-based
Experimental: as §1, §2, §3, §4

Sheep blood = assay: Hemolysis assay; format: cell-based
Experimental: Sheep blood in Alsever’s solution (2 mL) was diluted with PBS (13 mL) and centrifuged (2,000 RPM, 5 min). The supernatant was discarded and the cells were washed with another 13 mL of PBS and centrifuged. Washing was continued until the supernatant was clear. After the final wash the supernatant was discarded and the packed cells were kept on ice. Serial dilutions of each peptide were made in 50 µl PBS with the highest tested concentration 64 µg/mL in PBS, 2%
DMSO. The packed cells (150 µL) were suspended in PBS (10 mL) and 50 µL of this suspension was added to each well. A well plate column containing 0.1% triton x-100 in DI water was used as the 100% lysis control and a second column with PBS (with 2% DMSO) served as the 0% lysis control. After incubation at 37°C for 1h the plates were centrifuged (2,000 RPM, 5 min) and 25 µL of the supernatant was added to 100 µL DI water in a flat-bottom 96-wells plate (polystyrene). […]

[1] = Supplemental table S9, MIC values of Table 2 expressed in µM
[2] = Table 2, broth microdilution in TSB, 16 h, read visually, highest tested 64 µg/ml, 2% DMSO
[3] = Table 2, vancomycin-resistant isolate from hospitalized patients, broth microdilution in TSB, 16 h, highest tested 64 µg/ml
[4] = Table 2, broth microdilution in TSB, 16 h, read visually, highest tested 64 µg/ml
[5] = Supplemental table S9, vancomycin-resistant isolate, MIC values of Table 2 expressed in µM
[6] = Supplemental table S9, 1 hour incubation at 37 °C, lipopeptides at 32 µg/mL

Row | SMILES | MIC M. luteus (NCTC2665) (M. luteus (NCTC2665); [1]) [µM] | MIC M. luteus (NCTC2665) (M. luteus (NCTC2665); [2]) [μg mL^–1] | MIC E. faecium (VRE0321) (E. faecium (VRE0321)) | MIC E. faecium (VRE155) (E. faecium (VRE155)) | MIC E. faecium (VRE7391) (E. faecium (VRE7391); [3]) | MIC E. faecium (E980) (E. faecium (E980); [1]) [µM] | MIC E. faecium (E980) (E. faecium (E980); [4]) [μg mL^–1] | MIC E. faecium (VRE2297) (E. faecium (VRE2297); [5]) | MIC E. faecium (VRE2297) (E. faecium (VRE2297); [3]) [μg mL^–1] | MIC S. epidermidis (1587) (S. epidermidis (1587); [1]) | MIC S. epidermidis (1587) (S. epidermidis (1587); [4]) [μg mL^–1] | MIC B. subtilis (168) (B. subtilis (168); [1]) [µM] | MIC B. subtilis (168) (B. subtilis (168); [4]) [μg mL^–1] | MIC S. pyogenes (5448) (S. pyogenes (5448); [1]) [µM] | MIC S. pyogenes (5448) (S. pyogenes (5448); [4]) [μg mL^–1] | Hemolysis (Sheep blood; [6]) [%] | MIC M. luteus (NCTC2665) (M. luteus (NCTC2665); Table 2, broth microdilution in TSB, 16 h, read visually, highest tested 64 µg/ml, 2% DMSO, listed as P8-R15A-C10) | MIC E. faecium (VRE7391) (E. faecium (VRE7391); [5]) | Hemolysis (Sheep blood; Table 2, sheep blood cells in PBS, lipopeptides at 32 μg mL^–1, 1 hour at 37 °C, absorption at 414 nm, 0.1% triton x-100 = 100% lysis, listed as P8-R15A-C10)
1 | CCCCCCCCCCNC(=O)CNC(=O)[C@H]1CSCc2cc3cc(c2)CSC[C@@H](NC(=O)[C@@H](CC(C)C)NC(=O)[C@@H](CC(C)C)NC(=O)[C@@H](CO)NC(=O)[C@@H](CCC(N)=O)NC(=O)[C@@H](CC(C)C)NC(=O)[C@@H](CC(C)C)NC(=O)[C@H](NC(=O)[C@@H](C)N)CSC3)C(=O)N2CCC[C@@H]2C(=O)N[C@H](Cc2ccc(O)cc2)C(=O)N[C@H](CO)C(=O)N[C@H]([C@H](C)O)C(=O)N[C@H](CCCNC(=N)N)C(=O)N[C@H](C)C(=O)N1 [P8-D-(H14R, R15A)-C10] (H-[dA][dC][dL][dL][dQ][dS][dL][dL][dC][dP][dY][dS][dT][dR][dA][dC]G-NHDecyl; linker 2-9-16 via TBMB; N-terminus assumed) | 3.9 (≈ 8.01 µg/mL) | 4 | 8–16 μg mL^–1 | 8–16 μg mL^–1 | 8–16 μg mL^–1 | 31.2 (≈ 64 µg/mL) | 32 | 15.6 µM (≈ 32 µg/mL) | 16 | > 62. 4 µM | >64 | 15.6 (≈ 32 µg/mL) | 16 | 15.6 (≈ 32 µg/mL) | 16 | 2 |  |  | 
2 | CCCCCCCCCCNC(=O)CNC(=O)[C@H]1CSCc2cc3cc(c2)CSC[C@@H](NC(=O)[C@@H](CC(C)C)NC(=O)[C@@H](CC(C)C)NC(=O)[C@@H](CO)NC(=O)[C@@H](CCC(N)=O)NC(=O)[C@@H](CC(C)C)NC(=O)[C@@H](CC(C)C)NC(=O)[C@H](NC(=O)[C@@H](C)N)CSC3)C(=O)N2CCC[C@@H]2C(=O)N[C@H](Cc2ccc(O)cc2)C(=O)N[C@H](CO)C(=O)N[C@H]([C@H](C)O)C(=O)N[C@H](Cc2c[nH]cn2)C(=O)N[C@H](C)C(=O)N1 [P8-D-(R15A)-C10] (H-[dA][dC][dL][dL][dQ][dS][dL][dL][dC][dP][dY][dS][dT][dH][dA][dC]G-NHDecyl; linker 2-9-16 via TBMB; N-terminus assumed) | 3.9 (≈ 7.93 µg/mL) | 4 | 8–16 μg mL^–1 | 16 μg mL^–1 | >64 μg mL^–1 | 63.1 (≈ 128 µg/mL) | 64 | > 63. 1 µM | >64 | > 63. 1 µM | >64 | > 63.1 | >64 |  | 16 | 0 | retained activity | > 63. 1 µM | completely non-hemolytic
